According to US20220249525A1, “Fatty Acid Compounds for Prevention and Treatment of Neurodegenerative Disorders” (T OMEGA AS, priority 2019, published 2022):

Experiments:
Type in all cases: cell-based
[1] = test system: HeLaNRF1/c4 reporter cells; assay: Resazurin conversion assay in HeLaNRF1/c4 reporter cells; conditions: test compounds 30 μM and 60 μM, long treatment
Procedure: (§1) Non-small cell lung cancer cells, HCC827 (ATCC) were cultured in RPMI-1640 Glutamax medium (Sigma-Aldrich St. Louis, Mo., USA), under conventional culture conditions. Media was supplemented with 10% Fetal Bovine Serum (FBS), 1% glutamine and 1% streptomycin/penicillin (Sigma-Aldrich). HeLaNRF1/c4 reporter cells were cultured in Dulbecco's Modified Eagle's Medium (DMEM) supplemented with 10% FBS, 2 mM L-Glutamine, 100 u/ml penicillin/streptomycin (Sigma-Aldrich,). Incubation was done at 37° C. in 5% CO2.
Cell viability/proliferation was determined by the resazurin conversion assay. A total of 4000 cells were seeded in each of the 96-well plates in 100 μl of medium. After 3 hours of incubation, 100 μl of fresh medium with respective concentration of the desired compound or controls were added. Resazurin solution (Sigma-Aldrich) was added (10%, v/v in PBS) after 1 or 3 day treatment, followed by 3 hour incubation at 37° C. and 5% CO2. Resazurin fluorescence (excitation, 540 nm; emission, 590 nm) was measured and measurements were corrected for background signals. […] Relative viability was calculated from percent fluorescence relative to DMSO-treated control wells.
In order to investigate if some of the compounds induce metabolic adaptations involving mitochondrial biogenesis, we employed the HeLaNRF1/c4 reporter cells in which activation of the transcription factor NRF1 triggers expression of GFP. Since adaptations of mitochondrial biogenesis are known to require some days to develop, we used a relatively low dosage (30 μM and 60 μM) of the compounds, to allow longer treatment period compared to the previous short term experiments.

SH-SY5Y cells = assay: WST-1 cell viability assay in SH-SY5Y cells; conditions: 4 days, 31-125 μM
Procedure: The fatty acids (FAs) TTA, tr-TTA, N-TTA, tr-N-TTA and (PA) were complexed with FBS following the same procedure, differing only in final stock concentration, due to variation in solubility. Approximately 0.07 g of FA was weighed in a 10 ml sterile serum tube (BD Vacutainer®, catalog no. 368430) and dissolved in sterile filtrated 0.1 M sodium hydroxide (NaOH) of a volume giving 25 mM FA, controls without FA were made, containing only NaOH and FBS. A syringe (Sterican®, catalog no. 4657577) was pierced through the rubber cap of the serum tube, and the tube was placed in an 80° C. water bath until the FAs were dissolved. Each FA-solution was then diluted in inactivated FBS to stock concentration 1 mM (N-TTA, tr-N-TTA), and 2 mM by adding the FA to a volume of 100% FBS after heating the FBS to 45° C. in a water bath. The transfer of FA to FBS had to be executed controlled and swiftly to avoid the formation of precipitates. If any precipitates in the solution were visible, the FA and a new volume of FBS were reheated, and the procedure performed again. Following successful complexation, the stock solutions were stored at −20° C. in 1 ml aliquots (CryoPure tube, Sarstedt AG & Co, Nümbrecht, Germany).
The WST-1 cell proliferation assay was performed using the kit from Roche (table 4.2.) and its accompanying procedure (version 16, February 2011) (134). The number of cells seeded to each well in the 96-well plates (Corning Inc., catalog no. 353072) varied depending on the treatment time and cell type (table 3.).
Cell suspension and medium were then transferred to each well in a volume of 100 μl in total. Subsequently, the plates were incubated for 24 hours to make the cells settle. The next day, 100 μl with FA complexed with FBS or diluted in DMSO was added to row A or B in the 96-well plate to give a defined concentration. The solution was then mixed with a pipette, and 100 μl of the medium with FA was transferred to the next well in the same column, mixed by pipetting up and down at least five times before 100 μl was transferred again to the next well in the column. This procedure was repeated until the second last, or last well in each column was reached, making a series of two-fold dilution of the FAs in the cell medium. Two parallels were performed for every treatment per run. After the addition of FAs, the plates were incubated for 24-96 hours depending on the length of the treatment.
Following the FA-treatment, the cells were studied under a microscope to ensure that visual observations matched the measured absorbance and cell activity in the assay. Subsequently, 10 μl WST-1 reagent was added to each well, and the plates were incubated for 3 hours. Due to high activity in the HuH-7 cell line, the WST-1 reagent was diluted 1:1 with PBS. Before the measurement of absorbance, the plates were placed on a shaker for 1 minute ensuring thoroughly mixing of the wells. The plates were then put straight into the spectrophotometer (SpectraMax Plus 384 Microplate Reader, Molecular Devices Corporation, San Jose, Calif., USA) to perform the measurements. […] The absorbance of the samples was measured at 450 nm, and the reference wavelength was set to 650 nm. For each well, the measured absorption at 650 nm was subtracted from the absorption at 450 nm. The measured absorbance for the treated cells was then compared to the controls (blank) containing only cells and growth medium.

HCC827 cells = assay: Mitochondria respiration assay (OCR, extracellular flux) in HCC827 cells
Procedure: as §1
Mitochondria function was analyzed by measuring oxygen consumption rate (OCR) by extracellular flux analysis in a Seahorse XFe96 instrument (Agilent Seahorse XF Technologies). The measurements were performed in DADA basic media without phenol red, supplemented with L-glutamine (2 mM), pyruvate (2 mM), and sodium chloride, NaCl (32 mM) (Sigma-Aldrich). Respiratory rates were measured following sequential additions of glucose (10 mM), oligomycin, carbonyl cyanide m-chlorophenyl hydrazine (CCCP) and a mixture of rotenone (1 μM) and antimycin A (1 μM). Before carrying out the measurements for each cell model, optimizations were done for; cell number, CCCP, and oligomycin concentrations. For the HCC 827 cell model optimal conditions were; 30,000 cells/well, 0.5 μM CCCP, and 3 μM Oligomycin; and in HeLaNRF1/c4 reporter cell model; 20,000 cells/well, 1 μM CCCP and 3 μM Oligomycin. The OCR measured initially (before any additions) represented the rate ‘basal respiration.’ The addition of ATP synthase inhibitor oligomycin provided oxygen consumption independent of ATP production (‘leak activity’). Maximal respiration (also referred to as ‘respiratory capacity’) was measured upon addition of the uncoupler CCCP. […] After the extracellular flux analysis the analysis plates were washed with Phosphate Buffered Saline (PBS) and frozen at −80° C. The BCA assay (Pierce BCA protein assay kit, Thermo Fisher Scientific, Waltham, Mass. USA) was employed to measure the protein content in the wells. To evaluate the effects of the different treatments, the respiratory rates from compound-treated wells were normalized to protein content, and calculated as percentage of the average respiratory rate of the DMSO-treated control wells. All treatments were performed with 6-8 replicate wells.

For CCCCCCCCCCCCCCNCC(=O)O [N-TTA, N-tetradecylglycine], the resazurin conversion [1] was “dose-dependent reduction”, the “WST-1 activity compared to untreated cells” value (SH-SY5Y cells) was “about 110%” and the “leak respiration after oligomycin” value (HCC827 cells; 100 μM TTA, 200 μM 2-triple TTA, 30 μM TDG) was “significantly increased”. The “basal respiratory rate (OCR)” value (HCC827 cells; compared to control) was “decreased in a dose-dependent manner” and the “leak respiration after oligomycin” value (HCC827 cells; higher concentrations) was “reduced leak respiration”.
